Reference: PubChem BioAssay (NCI)
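Growth conditions: 96-well plates. Treatment: test compound, 48 hours, 5 concentrations. Analysis: linear interpolation between bracketing concentrations; unreached endpoints set to highest concentration. TGI: total growth inhibition.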

How the values were obtained:
Assay in all cases: DTP human tumour cell line panel, 48 h
786-0 renal = test system: 786-0 renal
A498 renal = test system: A498 renal
A549 NSCLC = test system: A549 NSCLC
ACHN renal = test system: ACHN renal
BT-549 breast = test system: BT-549 breast
CAKI-1 renal = test system: CAKI-1 renal
CCRF-CEM leukemia = test system: CCRF-CEM leukemia
COLO 205 colon = test system: COLO 205 colon
DU-145 prostate = test system: DU-145 prostate
EKVX NSCLC = test system: EKVX NSCLC
HCC-2998 colon = test system: HCC-2998 colon
HCT-116 colon = test system: HCT-116 colon
HCT-15 colon = test system: HCT-15 colon
HOP-62 NSCLC = test system: HOP-62 NSCLC
HOP-92 NSCLC = test system: HOP-92 NSCLC
HS 578T breast = test system: HS 578T breast
HT29 colon = test system: HT29 colon
IGROV1 ovarian = test system: IGROV1 ovarian
K-562 leukemia = test system: K-562 leukemia
KM12 colon = test system: KM12 colon
LOX IMVI melanoma = test system: LOX IMVI melanoma
M14 melanoma = test system: M14 melanoma
MALME-3M melanoma = test system: MALME-3M melanoma
MCF7 breast = test system: MCF7 breast
MDA-MB-231 breast = test system: MDA-MB-231 breast
MDA-MB-435 = test system: MDA-MB-435
MDA-N = test system: MDA-N
MOLT-4 leukemia = test system: MOLT-4 leukemia
NCI-H226 lung = test system: NCI-H226 lung
NCI-H23 lung = test system: NCI-H23 lung
NCI-H460 lung = test system: NCI-H460 lung
NCI-H522 lung = test system: NCI-H522 lung
NCI/ADR-RES ovarian = test system: NCI/ADR-RES ovarian
OVCAR-3 ovarian = test system: OVCAR-3 ovarian
OVCAR-4 ovarian = test system: OVCAR-4 ovarian
OVCAR-5 ovarian = test system: OVCAR-5 ovarian
OVCAR-8 ovarian = test system: OVCAR-8 ovarian
PC-3 prostate = test system: PC-3 prostate
RPMI-8226 leukemia = test system: RPMI-8226 leukemia
RXF 393 renal = test system: RXF 393 renal
SF-268 CNS = test system: SF-268 CNS
SF-295 CNS = test system: SF-295 CNS
SF-539 CNS = test system: SF-539 CNS
SK-MEL-2 melanoma = test system: SK-MEL-2 melanoma
SK-MEL-28 melanoma = test system: SK-MEL-28 melanoma
SK-MEL-5 melanoma = test system: SK-MEL-5 melanoma
SK-OV-3 ovarian = test system: SK-OV-3 ovarian
SN12C renal = test system: SN12C renal
SNB-19 CNS = test system: SNB-19 CNS
SNB-75 CNS = test system: SNB-75 CNS
SR leukemia = test system: SR leukemia
SW-620 colon = test system: SW-620 colon
T-47D breast = test system: T-47D breast
TK-10 renal = test system: TK-10 renal
U251 CNS = test system: U251 CNS
UACC-257 melanoma = test system: UACC-257 melanoma
UACC-62 melanoma = test system: UACC-62 melanoma
UO-31 renal = test system: UO-31 renal
HL-60(TB) leukemia = test system: HL-60(TB) leukemia

CCn1c(=O)c2cn[nH]c2n(C)c1=O
TGI (786-0 renal): > 100 µM | TGI (A498 renal): > 100 µM | TGI (A549 NSCLC): > 100 µM | TGI (ACHN renal): > 100 µM | TGI (BT-549 breast): > 100 µM | TGI (CAKI-1 renal): > 100 µM | TGI (CCRF-CEM leukemia): > 100 µM | TGI (COLO 205 colon): > 100 µM | TGI (DU-145 prostate): > 100 µM | TGI (EKVX NSCLC): > 100 µM | TGI (HCC-2998 colon): > 100 µM | TGI (HCT-116 colon): > 100 µM | TGI (HCT-15 colon): > 100 µM | TGI (HOP-62 NSCLC): > 100 µM | TGI (HOP-92 NSCLC): > 100 µM | TGI (HS 578T breast): > 100 µM | TGI (HT29 colon): > 100 µM | TGI (IGROV1 ovarian): > 100 µM | TGI (K-562 leukemia): > 100 µM | TGI (KM12 colon): > 100 µM | TGI (LOX IMVI melanoma): > 100 µM | TGI (M14 melanoma): > 100 µM | TGI (MALME-3M melanoma): > 100 µM | TGI (MCF7 breast): > 100 µM | TGI (MDA-MB-231 breast): > 100 µM | TGI (MDA-MB-435): > 100 µM | TGI (MDA-N): > 100 µM | TGI (MOLT-4 leukemia): > 100 µM | TGI (NCI-H226 lung): > 100 µM | TGI (NCI-H23 lung): > 100 µM | TGI (NCI-H460 lung): > 100 µM | TGI (NCI-H522 lung): > 100 µM | TGI (NCI/ADR-RES ovarian): > 100 µM | TGI (OVCAR-3 ovarian): > 100 µM | TGI (OVCAR-4 ovarian): > 100 µM | TGI (OVCAR-5 ovarian): > 100 µM | TGI (OVCAR-8 ovarian): > 100 µM | TGI (PC-3 prostate): > 100 µM | TGI (RPMI-8226 leukemia): > 100 µM | TGI (RXF 393 renal): > 100 µM | TGI (SF-268 CNS): > 100 µM | TGI (SF-295 CNS): > 100 µM | TGI (SF-539 CNS): > 100 µM | TGI (SK-MEL-2 melanoma): > 100 µM | TGI (SK-MEL-28 melanoma): > 100 µM | TGI (SK-MEL-5 melanoma): > 100 µM | TGI (SK-OV-3 ovarian): > 100 µM | TGI (SN12C renal): > 100 µM | TGI (SNB-19 CNS): > 100 µM | TGI (SNB-75 CNS): > 100 µM | TGI (SR leukemia): > 100 µM | TGI (SW-620 colon): > 100 µM | TGI (T-47D breast): > 100 µM | TGI (TK-10 renal): > 100 µM | TGI (U251 CNS): > 100 µM | TGI (UACC-257 melanoma): > 100 µM | TGI (UACC-62 melanoma): > 100 µM | TGI (UO-31 renal): > 100 µM

ONCCCn1cnc2c(NC3CC3)ncnc21
TGI (786-0 renal): > 100 µM | TGI (A498 renal): > 100 µM | TGI (A549 NSCLC): > 100 µM | TGI (ACHN renal): > 100 µM | TGI (BT-549 breast): > 100 µM | TGI (CAKI-1 renal): > 100 µM | TGI (CCRF-CEM leukemia): > 100 µM | TGI (COLO 205 colon): > 100 µM | TGI (DU-145 prostate): > 100 µM | TGI (EKVX NSCLC): > 100 µM | TGI (HCC-2998 colon): > 100 µM | TGI (HCT-116 colon): > 100 µM | TGI (HCT-15 colon): > 100 µM | TGI (HOP-62 NSCLC): > 100 µM | TGI (HOP-92 NSCLC): > 100 µM | TGI (HS 578T breast): > 100 µM | TGI (HT29 colon): > 100 µM | TGI (IGROV1 ovarian): > 100 µM | TGI (K-562 leukemia): > 100 µM | TGI (KM12 colon): > 100 µM | TGI (LOX IMVI melanoma): > 100 µM | TGI (M14 melanoma): > 100 µM | TGI (MALME-3M melanoma): > 100 µM | TGI (MCF7 breast): > 100 µM | TGI (MDA-MB-231 breast): > 100 µM | TGI (MDA-MB-435): > 100 µM | TGI (MDA-N): > 100 µM | TGI (MOLT-4 leukemia): > 100 µM | TGI (NCI-H226 lung): > 100 µM | TGI (NCI-H23 lung): > 100 µM | TGI (NCI-H460 lung): > 100 µM | TGI (NCI-H522 lung): > 100 µM | TGI (NCI/ADR-RES ovarian): > 100 µM | TGI (OVCAR-3 ovarian): > 100 µM | TGI (OVCAR-4 ovarian): > 100 µM | TGI (OVCAR-5 ovarian): > 100 µM | TGI (OVCAR-8 ovarian): > 100 µM | TGI (PC-3 prostate): > 100 µM | TGI (RPMI-8226 leukemia): > 100 µM | TGI (RXF 393 renal): > 100 µM | TGI (SF-268 CNS): > 100 µM | TGI (SF-295 CNS): > 100 µM | TGI (SF-539 CNS): > 100 µM | TGI (SK-MEL-2 melanoma): > 100 µM | TGI (SK-MEL-28 melanoma): > 100 µM | TGI (SK-MEL-5 melanoma): > 100 µM | TGI (SK-OV-3 ovarian): > 100 µM | TGI (SN12C renal): > 100 µM | TGI (SNB-19 CNS): > 100 µM | TGI (SNB-75 CNS): > 100 µM | TGI (SR leukemia): > 100 µM | TGI (SW-620 colon): > 100 µM | TGI (T-47D breast): > 100 µM | TGI (TK-10 renal): > 100 µM | TGI (U251 CNS): > 100 µM | TGI (UACC-257 melanoma): > 100 µM | TGI (UACC-62 melanoma): > 100 µM | TGI (UO-31 renal): > 100 µM

COc1ccc(-c2cc(=O)c3c(O)cc(O)cc3o2)cc1OC
TGI (786-0 renal): > 100 µM | TGI (A498 renal): 45.2 µM | TGI (A549 NSCLC): > 100 µM | TGI (ACHN renal): > 100 µM | TGI (BT-549 breast): > 100 µM | TGI (CCRF-CEM leukemia): > 100 µM | TGI (COLO 205 colon): > 100 µM | TGI (DU-145 prostate): > 100 µM | TGI (EKVX NSCLC): > 100 µM | TGI (HCC-2998 colon): > 100 µM | TGI (HCT-116 colon): > 100 µM | TGI (HCT-15 colon): > 100 µM | TGI (HL-60(TB) leukemia): > 100 µM | TGI (HOP-62 NSCLC): > 100 µM | TGI (HOP-92 NSCLC): 16.4 µM | TGI (HS 578T breast): > 100 µM | TGI (HT29 colon): > 100 µM | TGI (IGROV1 ovarian): > 100 µM | TGI (K-562 leukemia): > 100 µM | TGI (KM12 colon): > 100 µM | TGI (LOX IMVI melanoma): > 100 µM | TGI (M14 melanoma): > 100 µM | TGI (MALME-3M melanoma): > 100 µM | TGI (MCF7 breast): > 100 µM | TGI (MDA-MB-231 breast): > 100 µM | TGI (MDA-MB-435): > 100 µM | TGI (MDA-N): > 100 µM | TGI (MOLT-4 leukemia): > 100 µM | TGI (NCI-H226 lung): > 100 µM | TGI (NCI-H23 lung): > 100 µM | TGI (NCI-H460 lung): > 100 µM | TGI (NCI-H522 lung): 59.1 µM | TGI (NCI/ADR-RES ovarian): > 100 µM | TGI (OVCAR-3 ovarian): > 100 µM | TGI (OVCAR-4 ovarian): > 100 µM | TGI (OVCAR-5 ovarian): > 100 µM | TGI (PC-3 prostate): > 100 µM | TGI (RPMI-8226 leukemia): > 100 µM | TGI (RXF 393 renal): > 100 µM | TGI (SF-268 CNS): > 100 µM | TGI (SF-295 CNS): > 100 µM | TGI (SF-539 CNS): > 100 µM | TGI (SK-MEL-2 melanoma): > 100 µM | TGI (SK-MEL-28 melanoma): > 100 µM | TGI (SK-MEL-5 melanoma): > 100 µM | TGI (SK-OV-3 ovarian): > 100 µM | TGI (SN12C renal): > 100 µM | TGI (SNB-19 CNS): > 100 µM | TGI (SNB-75 CNS): 37.1 µM | TGI (SR leukemia): 33.5 µM | TGI (SW-620 colon): > 100 µM | TGI (T-47D breast): > 100 µM | TGI (TK-10 renal): > 100 µM | TGI (U251 CNS): > 100 µM | TGI (UACC-257 melanoma): > 100 µM | TGI (UACC-62 melanoma): > 100 µM | TGI (UO-31 renal): > 100 µM
